Among the test systems are UACC-62 melanoma; SK-MEL-2 melanoma; UO-31 renal; KM12 colon; BT-549 breast; MDA-MB-231 breast; NCI-H460 lung; A498 renal; SN12C renal; EKVX NSCLC; HS 578T breast; OVCAR-4 ovarian; SK-MEL-5 melanoma; SNB-75 CNS; SW-620 colon; SK-MEL-28 melanoma; SR leukemia.
What all share (test): NCI-60 cell line screen, 48 h

Among the data in PubChem BioAssay (NCI) are TGI values, retold here.

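Cultured in 96-well plates, cells were exposed to test compound for 48 hours across five concentrations. Definition used: TGI = concentration required for complete inhibition of growth.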

Consider `CC(=O)Oc1ccc(-c2nnc(-c3ccc(OC(C)=O)cc3)nn2)cc1`, for which the TGI with UACC-62 melanoma, in the assay with SK-MEL-2 melanoma, in the assay with UO-31 renal, in the assay on KM12 colon, in the assay on BT-549 breast and in the assay on MDA-MB-231 breast was above 100 µM each time. Besides, the TGI with NCI-H460 lung, in the assay with A498 renal, with SN12C renal, with EKVX NSCLC, in the assay with HS 578T breast and with OVCAR-4 ovarian was above 100 µM each time. For the same compound, the TGI with SK-MEL-5 melanoma was above 100 µM; in the assay with SNB-75 CNS it was above 100 µM; with SW-620 colon, above 100 µM; in the assay with SK-MEL-28 melanoma, above 100 µM; in the assay on SR leukemia, 88.1 µM.

With `COC(=O)c1sc(=S)sc1SCc1cccc(CSc2sc(=S)sc2C(=O)OC)c1`, the TGI is above 100 µM in the assay with UACC-62 melanoma; above 100 µM in the assay with SK-MEL-2 melanoma; above 100 µM with UO-31 renal; above 100 µM with KM12 colon; 94.1 µM in the assay on BT-549 breast; above 100 µM in the assay on MDA-MB-231 breast. The TGI is above 100 µM with NCI-H460 lung; 62.2 µM in the assay with A498 renal; above 100 µM with SN12C renal; above 100 µM in the assay with EKVX NSCLC; above 100 µM in the assay with HS 578T breast; above 100 µM with OVCAR-4 ovarian. Also, the TGI in the assay with SK-MEL-5 melanoma is above 100 µM; with SNB-75 CNS, 26.6 µM; in the assay with SW-620 colon, above 100 µM; in the assay on SK-MEL-28 melanoma it was above 100 µM; with SR leukemia, above 100 µM.

Consider `O=C1C(Cl)=CC2(C=C1Cl)CCN=c1c(O)c3c(c(O)c12)=NC=N3`, for which the TGI was 34.7 µM with UACC-62 melanoma; 63.1 µM with SK-MEL-2 melanoma; above 100 µM with UO-31 renal; above 100 µM in the assay on KM12 colon; 75.2 µM in the assay with BT-549 breast; above 100 µM with MDA-MB-231 breast. The TGI in the assay with NCI-H460 lung, with A498 renal, in the assay on SN12C renal, in the assay on EKVX NSCLC, in the assay on HS 578T breast and in the assay on OVCAR-4 ovarian was above 100 µM in each case. Besides, the TGI in the assay on SK-MEL-5 melanoma was 30.8 µM; in the assay with SNB-75 CNS it was above 100 µM; in the assay on SW-620 colon, above 100 µM; in the assay with SK-MEL-28 melanoma, above 100 µM; in the assay with SR leukemia, 36.5 µM.

For the compound `O=C(/C=C/c1ccccc1)CCN1CCCCC1`, the TGI with UACC-62 melanoma was above 100 µM; in the assay on SK-MEL-2 melanoma it was above 100 µM; with UO-31 renal it was above 100 µM; in the assay with KM12 colon, above 100 µM; in the assay on BT-549 breast it was above 100 µM; in the assay on MDA-MB-231 breast, 63.9 µM. For the same compound, the TGI in the assay on NCI-H460 lung is above 100 µM; in the assay with A498 renal, above 100 µM; in the assay on SN12C renal it was 48.8 µM; in the assay on EKVX NSCLC, above 100 µM; in the assay on HS 578T breast it was above 100 µM; in the assay on OVCAR-4 ovarian, above 100 µM. Also, the TGI in the assay on SK-MEL-5 melanoma was above 100 µM; in the assay with SNB-75 CNS it was above 100 µM; with SW-620 colon, 41.6 µM; with SK-MEL-28 melanoma, 58.5 µM; with SR leukemia it was above 100 µM.

As to `CCCCCCC1OC23OC1CCC2C(O)CCC3O` (stereo unspecified), the TGI with UACC-62 melanoma, with SK-MEL-2 melanoma, with UO-31 renal, in the assay on KM12 colon, in the assay with BT-549 breast and with MDA-MB-231 breast was above 100 µM each time. The TGI in the assay with NCI-H460 lung, with A498 renal, in the assay on SN12C renal, in the assay with EKVX NSCLC, in the assay with HS 578T breast and in the assay on OVCAR-4 ovarian was above 100 µM in each case. Besides, the TGI in the assay on SK-MEL-5 melanoma, in the assay with SNB-75 CNS, with SW-620 colon, in the assay on SK-MEL-28 melanoma and in the assay with SR leukemia was above 100 µM each time.

On to `COc1ccc(NC(=S)c2ccc([N+](=O)[O-])o2)cc1`, for which the TGI in the assay with UACC-62 melanoma was determined as 3.47 µM; with SK-MEL-2 melanoma, 4.15 µM; in the assay with UO-31 renal, 5.09 µM; in the assay on KM12 colon, 3.55 µM; in the assay with BT-549 breast, 4.69 µM; in the assay on MDA-MB-231 breast, 6.35 µM. The TGI is 5.72 µM with NCI-H460 lung; 29.1 µM in the assay on A498 renal; 4.85 µM with SN12C renal; 7.78 µM with EKVX NSCLC; above 43.1 µM with HS 578T breast; 3.07 µM with OVCAR-4 ovarian. For the same compound, the TGI was 13.1 µM with SK-MEL-5 melanoma; 14.9 µM with SNB-75 CNS; 2.9 µM in the assay on SW-620 colon; 12.5 µM with SK-MEL-28 melanoma; 8.63 µM in the assay on SR leukemia.

`N/C(=N\N=C\c1nc2ccccc2o1)c1cnccn1`: the TGI with UACC-62 melanoma, in the assay with SK-MEL-2 melanoma, with UO-31 renal, in the assay with KM12 colon, in the assay on BT-549 breast and in the assay on MDA-MB-231 breast was above 100 µM in each case. Also, the TGI in the assay on NCI-H460 lung, with A498 renal, in the assay on SN12C renal, in the assay with EKVX NSCLC, with HS 578T breast and in the assay on OVCAR-4 ovarian was above 100 µM throughout. Besides, the TGI was above 100 µM in the assay on SK-MEL-5 melanoma; 42.8 µM in the assay on SNB-75 CNS; above 100 µM in the assay with SW-620 colon; above 100 µM in the assay on SK-MEL-28 melanoma; above 100 µM with SR leukemia.

As to `O=C1/C(=C/c2ccc(Br)s2)NC(=S)N1CN1CCCCC1`, the TGI is above 100 µM in the assay on UACC-62 melanoma; 37.1 µM in the assay on SK-MEL-2 melanoma; 76.3 µM with UO-31 renal; above 100 µM with KM12 colon; 96.8 µM in the assay with BT-549 breast; above 100 µM in the assay on MDA-MB-231 breast. Also, the TGI with NCI-H460 lung is above 100 µM; in the assay with A498 renal, 91.7 µM; in the assay on SN12C renal, above 100 µM; with EKVX NSCLC it was above 100 µM; in the assay with HS 578T breast, above 100 µM; in the assay with OVCAR-4 ovarian, above 100 µM. Also, the TGI is 23.8 µM with SK-MEL-5 melanoma; above 100 µM in the assay on SNB-75 CNS; above 100 µM in the assay with SW-620 colon; above 100 µM with SK-MEL-28 melanoma; 47.1 µM in the assay with SR leukemia.
